{"source": "paper PMC4830539", "about": "“Chemical Inhibition of Histone Deacetylases 1 and 2 Induces Fetal Hemoglobin through Activation of GATA2” (PLoS ONE, 2016)", "type_in_all_cases": "cell-based, human", "key": {"GATA2 mRNA": {"tested_on": "GATA2 mRNA", "assay": "GATA2 mRNA in cells from SCD donors", "conditions": "1 μM, 3 days of culture"}, "HBG mRNA": {"tested_on": "HBG mRNA", "assay": "HBG induction in GATA2 knockdown BM cells", "conditions": "1 μM, 4 days, CS1 expansion media", "procedure": "shRNA experiments were conducted using the RNAi consortium (TRC) TRC1.5 vector, also known as pLKO.1-puro (Sigma). Five vectors containing shRNA targeting GATA2 were screened in expanded BM cells and the two hairpins yielding the greatest knockdown of GATA2 mRNA were selected for further use: shG2-1, TRCN0000019264 and shG2-2, TRCN0000019265. […] Lentiviral supernatants were produced in the 293T cell line using shRNA vectors, viral packaging mix (Sigma, SHP001), and TransIT-293 transfection reagent (Mirus Bio, Madison, WI). BM cells were grown for 3 days in CS1 expansion media, and then transduced using lentiviral supernatant’s supplemented with 5 μg/mL of polybrene under room temperature centrifugation at 1200 x g for 75 minutes. Transduced cells were grown for two days to allow for expression of construct, followed by selection for two days in 1 μg/mL of puromycin. The GATA2 overexpression vector (oeG2) was constructed by removing the GFP cassette of the pLKO.1-puro-CMV-TurboGFP vector (Sigma, SHC003) at the 5' NheI and 3' PstI cloning sites and replacing it with the full-length GATA2 transcript sequence (Refseq NM_001145661) (GenScript, Piscataway, NJ). pLKO.1-puro-CMV-TurboGFP vector was used as a control (oeGFP). BM cells were grown for 3 days in CS1 expansion media, and then transduced using the RetroNectin-bound virus method according to manufacturer’s protocol. […]"}, "[1]": {"tested_on": "gene expression in BM cells", "assay": "Gene expression profiling (Affymetrix GeneChip) of erythroid progenitors", "procedure": "BM cells were cultured in CS1 expansion media for 7 days, and then shifted to CS1 differentiation media containing vehicle or 1 μM ACY-957 for 5 days. Total RNA was isolated from cells at day 5 of differentiation using RNeasy Micro Kit with on-column DNase digestion (Qiagen). This experiment was performed in triplicate using cells from three independent donors on separate days to obtain vehicle treated (n = 3) and ACY-957 treated (n = 3) samples for GeneChip analysis. GeneChip sample preparation, hybridization, and data acquisition was performed by the Covance Genomics Laboratory (Seattle, WA) using Affymetrix GeneChip PrimeView™ Human Gene Expression Array according to manufacturer’s protocol. […] For the analysis of HDAC1 or HDAC2 knockdown in erythroblasts, raw gene expression data was downloaded from NCBI GEO website, series GSE22366 [21].\nData analysis was performed using BRB-ArrayTools. GSE60791 and GSE22366 data series were imported and analyzed independently. Raw data CEL files were processed with the robust multi-chip average (RMA) algorithm. Fold changes were derived from the geometric mean of intensity values in each treatment class. In the case of GSE60791, P-values were generated between ACY-957 and vehicle treated samples using a paired t test with random variance model applied. In the case of GSE22366, P-values were generated between luciferase control and HDAC1 or HDAC2 knockdown samples using a two-sample t test with random variance model applied.\nDuplicate gene symbols were removed by selecting the probe set with the lowest P-value. Next, these 4 gene sets were appended to the Molecular Signatures Database collection of Chemical and Genetic Perturbations. This database contained approximately 2777 gene sets, each containing at least 15 genes and no more than 10000 genes. Finally, log base 2 mRNA data from ACY-957 or vehicle treated cells was loaded into the publically available GSEA software from the Broad Institute and queried against the database of gene sets described above. ACY-957 phenotype was compared against vehicle phenotype by first collapsing the data set to gene symbols based on maximum probe signal and then using a weighted, signal-to-noise metric for ranking genes. Gene set permutations were performed to generate nominal P-values for each gene set.\nWe interrogated the mechanism through which HDAC1/2 inhibition induces HBG by performing gene expression profiling on ACY-957 or vehicle treated cells in CS1. Because HDAC inhibition prevented cells from fully upregulating GYPA (Fig 4) we isolated RNA at day 5 of differentiation, a time point prior to the observed differentiation block."}, "[2]": {"conditions": "treatment versus control, 1 μM, day 5"}}, "data": [{"smiles": "Nc1ccc(-c2cccs2)cc1NC(=O)c1ccc2nc(N3CCNCC3)ccc2c1", "note": "[ACY-957]", "values": [{"measurement": "GATA2 expression in primary cells derived from SCD patients", "setting": "GATA2 mRNA", "value": "elevated GATA2 expression"}, {"measurement": "reduction of the magnitude of HBG mRNA induction in shG2-1 and shG2-2 cells relative to shCtrl cells", "setting": "HBG mRNA", "value": 25, "unit": "%"}, {"measurement": "BCL11A down-regulated", "setting": "[1]; GeneChip, 1 μM, day 5", "value": 1.3, "unit": "fold"}, {"measurement": "GATA2 up-regulated", "setting": "[1]; GeneChip, 1 μM, day 5", "value": 2.8, "unit": "fold"}, {"measurement": "SOX6 down-regulated", "setting": "[1]; GeneChip, 1 μM, day 5", "value": 2.5, "unit": "fold"}, {"measurement": "expression of HBG repressors MYB and KLF1", "setting": "[1]; GeneChip, 1 μM, day 5", "value": "unaffected"}, {"measurement": "GATA2 induced (abstract)", "setting": "[1]; gene expression profiling of erythroid progenitors", "value": "greater than 3 fold"}, {"measurement": "BCL11A Ratio, candidate gene expression by GeneChip", "setting": "[1]; [2]", "value": 0.77}, {"measurement": "GATA1 Ratio, candidate gene expression by GeneChip", "setting": "[1]; [2]", "value": 1.0}, {"measurement": "GATA2 Ratio, candidate gene expression by GeneChip", "setting": "[1]; [2]", "value": 2.8}, {"measurement": "KLF1 Ratio, candidate gene expression by GeneChip", "setting": "[1]; [2]", "value": 0.87}, {"measurement": "MYB Ratio, candidate gene expression by GeneChip", "setting": "[1]; [2]", "value": 1.1}, {"measurement": "SOX6 Ratio, candidate gene expression by GeneChip", "setting": "[1]; [2]", "value": 0.41}]}]}
